Reference: ChEMBL document CHEMBL5291721, “A preclinical secondary pharmacology resource illuminates target-adverse drug reaction associations of marketed drugs” (Nat Commun, 2023)

Experiments:
[1] = target: T1, Beta-2 adrenergic receptor (Homo sapiens, UniProt P07550)
[2] = target: cGMP-inhibited 3',5'-cyclic phosphodiesterase 3A (Homo sapiens, UniProt Q14432); type: functional
[3] = target: T2, Muscarinic acetylcholine receptor M2 (Homo sapiens, UniProt P08172); type: functional, cell-based
T2 sequence (P08172 whole entry): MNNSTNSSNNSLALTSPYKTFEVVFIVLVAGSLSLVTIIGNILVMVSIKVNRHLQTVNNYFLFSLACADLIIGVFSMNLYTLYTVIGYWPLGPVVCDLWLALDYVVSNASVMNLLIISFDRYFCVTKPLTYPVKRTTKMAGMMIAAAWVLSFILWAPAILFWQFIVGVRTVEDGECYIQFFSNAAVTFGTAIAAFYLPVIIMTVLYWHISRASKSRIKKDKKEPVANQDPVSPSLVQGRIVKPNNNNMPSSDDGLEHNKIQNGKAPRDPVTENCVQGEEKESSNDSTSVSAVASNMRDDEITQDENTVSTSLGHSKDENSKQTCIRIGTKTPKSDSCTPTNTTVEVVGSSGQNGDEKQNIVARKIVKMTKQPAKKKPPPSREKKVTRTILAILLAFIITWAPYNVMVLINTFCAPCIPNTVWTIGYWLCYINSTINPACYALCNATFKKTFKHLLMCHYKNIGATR

[4] = target: T3, Neuropeptide Y receptor type 1 (Homo sapiens, UniProt P25929)
T3 sequence (P25929 whole entry): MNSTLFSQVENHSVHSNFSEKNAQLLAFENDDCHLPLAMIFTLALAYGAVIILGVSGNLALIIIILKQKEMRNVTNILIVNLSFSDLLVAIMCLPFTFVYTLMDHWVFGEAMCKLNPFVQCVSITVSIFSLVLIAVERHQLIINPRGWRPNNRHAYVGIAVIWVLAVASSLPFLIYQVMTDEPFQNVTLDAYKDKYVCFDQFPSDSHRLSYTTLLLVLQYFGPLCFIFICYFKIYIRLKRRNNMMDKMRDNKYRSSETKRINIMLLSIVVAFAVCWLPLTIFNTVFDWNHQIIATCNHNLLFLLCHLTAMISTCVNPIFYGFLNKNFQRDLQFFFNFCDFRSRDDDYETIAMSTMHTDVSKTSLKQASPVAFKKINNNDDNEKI

Vasopressin V2 receptor = Vasopressin V2 receptor (Homo sapiens, UniProt P30518)
[5] = target: T4, Cholecystokinin receptor type A (Homo sapiens, UniProt P32238)
T4 sequence (P32238 whole entry): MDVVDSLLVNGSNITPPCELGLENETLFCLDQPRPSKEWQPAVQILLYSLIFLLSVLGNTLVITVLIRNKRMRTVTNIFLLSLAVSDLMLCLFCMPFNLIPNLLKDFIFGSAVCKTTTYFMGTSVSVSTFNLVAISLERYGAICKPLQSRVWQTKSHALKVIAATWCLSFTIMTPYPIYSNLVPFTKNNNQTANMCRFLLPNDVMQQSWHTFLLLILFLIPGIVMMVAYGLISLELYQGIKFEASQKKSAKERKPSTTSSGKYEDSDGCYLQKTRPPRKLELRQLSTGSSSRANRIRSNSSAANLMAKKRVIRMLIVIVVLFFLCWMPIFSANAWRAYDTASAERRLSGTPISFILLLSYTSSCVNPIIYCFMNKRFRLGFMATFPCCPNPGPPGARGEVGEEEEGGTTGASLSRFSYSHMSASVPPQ

[6] = target: Gamma-aminobutyric acid receptor subunit alpha-1 (Rattus norvegicus, UniProt P62813); type: functional
Cannabinoid receptor 1 [7] = target: T5, Cannabinoid receptor 1 (Homo sapiens, UniProt P21554); type: functional, cell-based
[8] = target: T1, Beta-2 adrenergic receptor; type: functional, cell-based
Cannabinoid receptor 1 [9] = target: T5, Cannabinoid receptor 1; type: functional, cell-based; remark: listed apart in the source
Vasopressin V1a receptor = Vasopressin V1a receptor (Homo sapiens, UniProt P37288)
Endothelin-1 receptor = target: T6, Endothelin-1 receptor (Homo sapiens, UniProt P25101)
T6 sequence (P25101 whole entry): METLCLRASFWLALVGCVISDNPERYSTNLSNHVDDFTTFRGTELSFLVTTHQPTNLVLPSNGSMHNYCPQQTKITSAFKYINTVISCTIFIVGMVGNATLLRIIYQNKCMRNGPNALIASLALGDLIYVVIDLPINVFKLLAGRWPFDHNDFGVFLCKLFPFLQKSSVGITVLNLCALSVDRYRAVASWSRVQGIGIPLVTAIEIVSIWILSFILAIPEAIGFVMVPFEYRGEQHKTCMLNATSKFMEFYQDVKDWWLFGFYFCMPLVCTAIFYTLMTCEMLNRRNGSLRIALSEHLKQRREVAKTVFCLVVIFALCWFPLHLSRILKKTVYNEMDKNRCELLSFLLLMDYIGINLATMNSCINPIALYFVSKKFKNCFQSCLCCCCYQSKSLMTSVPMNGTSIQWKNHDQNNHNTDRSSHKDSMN

[10] = target: T7, Alpha-2B adrenergic receptor (Homo sapiens, UniProt P18089)
T7 sequence (P18089 whole entry): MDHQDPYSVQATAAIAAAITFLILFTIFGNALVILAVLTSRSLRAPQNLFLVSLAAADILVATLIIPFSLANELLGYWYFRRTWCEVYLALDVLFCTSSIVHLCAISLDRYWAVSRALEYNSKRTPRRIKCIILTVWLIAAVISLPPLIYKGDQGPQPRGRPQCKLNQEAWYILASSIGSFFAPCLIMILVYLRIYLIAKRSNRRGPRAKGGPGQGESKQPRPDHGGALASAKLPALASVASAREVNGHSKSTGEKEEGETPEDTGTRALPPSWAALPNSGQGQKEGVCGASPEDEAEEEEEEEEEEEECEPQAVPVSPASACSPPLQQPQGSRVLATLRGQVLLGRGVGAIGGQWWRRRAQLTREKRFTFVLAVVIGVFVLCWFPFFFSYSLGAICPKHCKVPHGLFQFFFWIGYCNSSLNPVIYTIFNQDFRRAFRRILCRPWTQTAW

Histamine H1 receptor = Histamine H1 receptor (Homo sapiens, UniProt P35367)
[11] = target: Muscarinic acetylcholine receptor M3 (Homo sapiens, UniProt P20309)
Note: assay procedure not described here.

T5 sequence (P21554 whole entry): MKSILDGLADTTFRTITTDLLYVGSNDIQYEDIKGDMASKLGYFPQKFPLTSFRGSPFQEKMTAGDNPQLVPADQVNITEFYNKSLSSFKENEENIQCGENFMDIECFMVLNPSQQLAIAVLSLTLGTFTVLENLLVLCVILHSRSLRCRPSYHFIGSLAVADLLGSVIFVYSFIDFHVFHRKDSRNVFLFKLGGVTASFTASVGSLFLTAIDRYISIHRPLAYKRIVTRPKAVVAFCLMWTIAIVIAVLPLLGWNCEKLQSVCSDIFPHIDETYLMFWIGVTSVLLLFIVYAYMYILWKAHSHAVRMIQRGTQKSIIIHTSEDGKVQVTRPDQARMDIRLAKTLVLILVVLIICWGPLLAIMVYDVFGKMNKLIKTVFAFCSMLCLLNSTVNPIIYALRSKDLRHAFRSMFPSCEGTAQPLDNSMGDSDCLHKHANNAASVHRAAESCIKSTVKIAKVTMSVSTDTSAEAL
T1 sequence (P07550 whole entry): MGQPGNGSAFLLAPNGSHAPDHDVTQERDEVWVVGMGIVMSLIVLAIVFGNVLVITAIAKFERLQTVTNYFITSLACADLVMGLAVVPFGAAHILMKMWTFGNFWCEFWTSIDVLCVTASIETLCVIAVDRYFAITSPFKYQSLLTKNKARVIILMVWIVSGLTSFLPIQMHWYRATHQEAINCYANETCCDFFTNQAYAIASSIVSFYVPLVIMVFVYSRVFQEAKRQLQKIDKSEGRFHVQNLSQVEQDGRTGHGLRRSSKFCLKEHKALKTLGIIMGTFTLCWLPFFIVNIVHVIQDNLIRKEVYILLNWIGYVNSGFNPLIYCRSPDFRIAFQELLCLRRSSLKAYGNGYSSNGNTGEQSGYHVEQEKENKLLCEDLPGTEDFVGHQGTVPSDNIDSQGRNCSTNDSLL
Vasopressin V2 receptor, sequence (P30518 whole entry): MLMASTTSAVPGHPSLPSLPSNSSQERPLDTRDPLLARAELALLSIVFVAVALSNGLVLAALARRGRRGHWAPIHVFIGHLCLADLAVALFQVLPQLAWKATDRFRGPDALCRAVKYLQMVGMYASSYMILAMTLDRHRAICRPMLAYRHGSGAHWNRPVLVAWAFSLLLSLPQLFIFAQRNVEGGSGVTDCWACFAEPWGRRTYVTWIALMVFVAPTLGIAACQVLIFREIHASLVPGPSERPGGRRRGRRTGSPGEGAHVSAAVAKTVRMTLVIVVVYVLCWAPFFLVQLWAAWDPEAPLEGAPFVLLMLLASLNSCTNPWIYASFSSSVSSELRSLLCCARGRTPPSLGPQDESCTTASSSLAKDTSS
Vasopressin V1a receptor, sequence (P37288 whole entry): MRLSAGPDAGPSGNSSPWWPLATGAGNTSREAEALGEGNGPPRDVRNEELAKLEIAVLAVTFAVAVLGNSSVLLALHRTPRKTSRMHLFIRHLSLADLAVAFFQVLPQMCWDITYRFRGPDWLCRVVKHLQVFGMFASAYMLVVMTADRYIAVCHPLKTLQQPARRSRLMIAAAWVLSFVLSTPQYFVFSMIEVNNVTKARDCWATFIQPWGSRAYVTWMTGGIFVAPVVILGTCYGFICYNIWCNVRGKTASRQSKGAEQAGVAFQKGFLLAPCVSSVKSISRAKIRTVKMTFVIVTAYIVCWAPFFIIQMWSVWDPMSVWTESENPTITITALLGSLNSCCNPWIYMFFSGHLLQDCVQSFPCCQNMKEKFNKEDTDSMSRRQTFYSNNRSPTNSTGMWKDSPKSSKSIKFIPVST
cGMP-inhibited 3',5'-cyclic phosphodiesterase 3A, sequence (Q14432 whole entry): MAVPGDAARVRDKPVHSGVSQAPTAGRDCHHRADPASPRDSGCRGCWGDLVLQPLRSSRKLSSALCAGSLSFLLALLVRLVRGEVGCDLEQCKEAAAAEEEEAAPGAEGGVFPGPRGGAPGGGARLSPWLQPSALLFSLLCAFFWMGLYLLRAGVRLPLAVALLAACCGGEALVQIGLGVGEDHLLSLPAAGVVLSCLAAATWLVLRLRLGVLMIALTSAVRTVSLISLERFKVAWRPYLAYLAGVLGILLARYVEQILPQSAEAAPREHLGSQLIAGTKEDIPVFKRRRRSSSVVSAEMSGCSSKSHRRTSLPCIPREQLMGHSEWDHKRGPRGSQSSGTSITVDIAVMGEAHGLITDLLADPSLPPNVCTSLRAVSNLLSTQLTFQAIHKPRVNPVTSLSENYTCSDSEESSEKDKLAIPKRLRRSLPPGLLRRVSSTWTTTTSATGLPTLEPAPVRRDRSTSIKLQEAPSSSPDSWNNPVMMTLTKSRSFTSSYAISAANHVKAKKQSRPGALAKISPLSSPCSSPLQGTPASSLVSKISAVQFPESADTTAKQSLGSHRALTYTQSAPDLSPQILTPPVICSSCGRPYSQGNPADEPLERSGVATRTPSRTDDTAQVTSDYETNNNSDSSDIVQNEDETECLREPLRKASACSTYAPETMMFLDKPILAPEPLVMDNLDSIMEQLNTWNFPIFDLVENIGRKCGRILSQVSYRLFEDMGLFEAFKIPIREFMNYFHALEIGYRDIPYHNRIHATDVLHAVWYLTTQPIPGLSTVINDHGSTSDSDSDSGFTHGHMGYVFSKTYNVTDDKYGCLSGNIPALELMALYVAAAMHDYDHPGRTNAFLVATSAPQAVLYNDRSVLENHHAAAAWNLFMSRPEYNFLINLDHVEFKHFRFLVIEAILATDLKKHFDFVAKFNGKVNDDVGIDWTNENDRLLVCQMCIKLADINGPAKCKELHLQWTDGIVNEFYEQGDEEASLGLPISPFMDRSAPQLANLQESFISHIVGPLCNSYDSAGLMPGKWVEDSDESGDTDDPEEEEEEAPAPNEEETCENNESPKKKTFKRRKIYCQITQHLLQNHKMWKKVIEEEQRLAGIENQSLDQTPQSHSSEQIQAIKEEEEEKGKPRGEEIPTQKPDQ
Gamma-aminobutyric acid receptor subunit alpha-1, sequence (P62813 whole entry): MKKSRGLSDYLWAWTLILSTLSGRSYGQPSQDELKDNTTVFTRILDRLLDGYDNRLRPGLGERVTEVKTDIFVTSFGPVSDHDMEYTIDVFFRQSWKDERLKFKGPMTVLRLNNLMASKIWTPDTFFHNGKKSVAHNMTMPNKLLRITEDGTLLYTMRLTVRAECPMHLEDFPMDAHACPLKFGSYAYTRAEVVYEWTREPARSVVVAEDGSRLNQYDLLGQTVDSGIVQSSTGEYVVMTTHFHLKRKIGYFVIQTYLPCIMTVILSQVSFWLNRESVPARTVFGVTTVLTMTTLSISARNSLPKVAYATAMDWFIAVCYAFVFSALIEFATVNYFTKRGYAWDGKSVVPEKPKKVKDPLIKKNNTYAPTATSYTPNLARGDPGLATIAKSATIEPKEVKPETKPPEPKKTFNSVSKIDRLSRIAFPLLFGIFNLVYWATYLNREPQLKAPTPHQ
Histamine H1 receptor, sequence (P35367 whole entry): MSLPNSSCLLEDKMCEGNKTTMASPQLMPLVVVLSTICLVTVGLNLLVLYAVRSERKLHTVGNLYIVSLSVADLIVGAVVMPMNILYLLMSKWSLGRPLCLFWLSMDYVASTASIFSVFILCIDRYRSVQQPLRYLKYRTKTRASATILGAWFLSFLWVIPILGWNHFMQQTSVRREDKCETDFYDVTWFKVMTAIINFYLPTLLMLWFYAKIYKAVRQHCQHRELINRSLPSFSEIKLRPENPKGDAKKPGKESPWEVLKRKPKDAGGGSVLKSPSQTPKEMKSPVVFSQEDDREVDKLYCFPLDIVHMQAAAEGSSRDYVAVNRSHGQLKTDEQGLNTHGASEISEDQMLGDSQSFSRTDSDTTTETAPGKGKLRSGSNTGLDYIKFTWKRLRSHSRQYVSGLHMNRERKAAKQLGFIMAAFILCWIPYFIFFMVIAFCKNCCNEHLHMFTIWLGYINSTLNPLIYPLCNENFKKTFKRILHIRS
Muscarinic acetylcholine receptor M3, sequence (P20309 whole entry): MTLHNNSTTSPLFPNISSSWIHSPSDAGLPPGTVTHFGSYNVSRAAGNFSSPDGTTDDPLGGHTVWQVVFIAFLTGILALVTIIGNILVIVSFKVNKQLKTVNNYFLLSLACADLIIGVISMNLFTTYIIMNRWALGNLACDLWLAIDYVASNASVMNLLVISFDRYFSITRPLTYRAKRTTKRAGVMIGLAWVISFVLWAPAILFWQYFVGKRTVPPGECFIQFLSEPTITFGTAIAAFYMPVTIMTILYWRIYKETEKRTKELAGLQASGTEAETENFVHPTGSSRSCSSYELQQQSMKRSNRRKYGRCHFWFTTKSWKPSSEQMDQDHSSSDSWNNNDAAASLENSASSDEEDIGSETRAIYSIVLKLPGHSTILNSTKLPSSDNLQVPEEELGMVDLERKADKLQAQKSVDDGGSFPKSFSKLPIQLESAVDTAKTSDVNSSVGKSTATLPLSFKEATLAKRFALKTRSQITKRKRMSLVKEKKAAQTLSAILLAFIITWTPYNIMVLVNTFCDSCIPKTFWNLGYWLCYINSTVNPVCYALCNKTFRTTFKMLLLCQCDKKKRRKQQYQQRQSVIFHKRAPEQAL

| SMILES | AC50 [1] | AC50 [2] | AC50 [3] | AC50 [4] | AC50 (Vasopressin V2 receptor) | AC50 [5] | AC50 [6] | AC50 (Cannabinoid receptor 1 [7]) | AC50 [8] | AC50 (Cannabinoid receptor 1 [9]) | AC50 (Vasopressin V1a receptor) | AC50 (Endothelin-1 receptor) | AC50 [10] | AC50 (Histamine H1 receptor) | AC50 [11] |
| --- | --- | --- | --- | --- | --- | --- | --- | --- | --- | --- | --- | --- | --- | --- | --- |
| CCC1(CCC(C)C)C(=O)NC(=O)NC1=O [AMOBARBITAL] | > 10 µM | > 30 µM | > 10 µM | > 10 µM | > 10 µM | > 10 µM | > 10 µM | – | – | – | – | – | – | – | – |
| COc1ccc(C2C(=O)c3ccccc3C2=O)cc1 [ANISINDIONE] | > 10 µM | > 30 µM | > 10 µM | > 10 µM | > 10 µM | > 10 µM | > 10 µM | – | – | – | – | – | – | – | – |
| Cc1cc(=O)n(-c2ccccc2)n1C [ANTIPYRINE] | > 10 µM | > 30 µM | > 10 µM | > 30 µM | > 30 µM | > 30 µM | > 10 µM | > 30 µM | > 30 µM | > 30 µM | – | – | – | – | – |
| O=C(O)CCNC(=O)c1ccc(/N=N/c2ccc(O)c(C(=O)O)c2)cc1 [BALSALAZIDE] | > 30 µM | > 30 µM | > 30 µM | > 30 µM | 36.9 µM | > 30 µM | > 30 µM | – | – | – | 33.7 µM | – | – | – | – |
| COc1cc(N)c(Cl)cc1C(=O)NC1CCN(CCCOc2ccc(F)cc2)CC1OC (centres undefined) [CISAPRIDE] | > 10 µM | > 30 µM | > 10 µM | > 30 µM | > 30 µM | > 30 µM | > 10 µM | > 30 µM | > 30 µM | > 30 µM | > 30 µM | > 30 µM | – | – | – |
| CCOC(=O)C(C)(C)Oc1ccc(Cl)cc1 [CLOFIBRATE] | > 10 µM | > 30 µM | > 10 µM | > 30 µM | > 30 µM | > 30 µM | > 10 µM | > 30 µM | > 30 µM | > 30 µM | > 30 µM | > 30 µM | – | – | – |
| C[C@@H]1C[C@H]2[C@@H]3CCC4=CC(=O)C=C[C@]4(C)[C@@]3(F)[C@@H](O)C[C@]2(C)[C@@]1(O)C(=O)CO [DEXAMETHASONE] | > 30 µM | > 30 µM | > 10 µM | > 30 µM | > 30 µM | > 30 µM | > 10 µM | – | – | – | > 30 µM | – | – | – | – |
| CCN1CC(CCN2CCOCC2)C(c2ccccc2)(c2ccccc2)C1=O (centres undefined) [DOXAPRAM] | > 30 µM | > 30 µM | > 30 µM | > 30 µM | > 30 µM | > 30 µM | > 30 µM | > 30 µM | – | > 30 µM | – | > 30 µM | – | – | – |
| CC(C)NC[C@H](O)COc1ccc(CC(N)=O)cc1 [ESATENOLOL] | – | > 10 µM | – | > 30 µM | > 30 µM | > 30 µM | – | – | – | – | > 10 µM | > 30 µM | – | – | – |
| CCOC(=O)c1ncn2c1CN(C)C(=O)c1cc(F)ccc1-2 [FLUMAZENIL] | > 30 µM | > 30 µM | > 30 µM | > 30 µM | > 30 µM | > 30 µM | – | – | – | – | – | – | – | – | – |
| NNC(=O)c1ccncc1 [ISONIAZID] | > 30 µM | > 30 µM | > 30 µM | > 30 µM | > 30 µM | > 30 µM | > 30 µM | > 30 µM | – | > 30 µM | > 30 µM | > 30 µM | – | – | – |
| COc1ccc2cc(CCC(C)=O)ccc2c1 [NABUMETONE] | > 10 µM | > 30 µM | > 10 µM | > 10 µM | > 10 µM | > 10 µM | > 10 µM | – | – | – | – | – | – | – | – |
| C[C@]12C/C(=C/O)C(=O)C[C@@H]1CC[C@@H]1[C@@H]2CC[C@@]2(C)[C@H]1CC[C@]2(C)O [OXYMETHOLONE] | > 30 µM | > 30 µM | > 30 µM | > 30 µM | > 30 µM | > 30 µM | > 30 µM | > 30 µM | > 30 µM | > 30 µM | – | > 30 µM | – | – | – |
| Fc1ccc([C@@H]2CCNC[C@H]2COc2ccc3c(c2)OCO3)cc1 [PAROXETINE] | 9.5 µM | > 30 µM | – | > 30 µM | > 30 µM | > 30 µM | > 10 µM | – | – | – | > 10 µM | > 30 µM | – | – | – |
| NC(=O)NC(=O)Cc1ccccc1 [PHENACEMIDE] | > 10 µM | > 30 µM | > 10 µM | > 10 µM | > 10 µM | > 10 µM | > 10 µM | – | – | – | – | – | – | – | – |
| CCCN(CCC)S(=O)(=O)c1ccc(C(=O)O)cc1 [PROBENECID] | > 10 µM | > 30 µM | > 10 µM | > 10 µM | > 10 µM | > 10 µM | > 10 µM | – | – | – | – | – | – | – | – |
| O=c1c(O)c(-c2ccc(O)c(O)c2)oc2cc(O)cc(O)c12 [QUERCETIN] | – | > 30 µM | > 10 µM | > 30 µM | – | > 30 µM | – | – | – | – | > 30 µM | > 30 µM | > 10 µM | > 10 µM | > 30 µM |
| Cc1cc(C)nc(NS(=O)(=O)c2ccc(N)cc2)n1 [SULFAMETHAZINE] | > 10 µM | > 30 µM | > 10 µM | > 10 µM | > 10 µM | > 10 µM | > 10 µM | – | – | – | – | – | – | – | – |
| COc1cc(C(=O)NC2CCCNC2)cc(OC)c1OC (centres undefined) [TROXIPIDE] | > 30 µM | > 30 µM | > 30 µM | > 30 µM | > 30 µM | > 30 µM | > 30 µM | > 30 µM | – | > 30 µM | – | > 30 µM | – | – | – |
| CCCCCCCC(=O)CC[C@@H]1[C@@H](C/C=C\CCCC(=O)OC(C)C)[C@@H](O)C[C@H]1O [UNOPROSTONE ISOPROPYL] | – | > 30 µM | – | – | – | – | – | – | – | – | – | – | – | > 30 µM | – |
| CC(c1cc2ccccc2s1)N(O)C(N)=O (centres undefined) [ZILEUTON] | > 10 µM | > 30 µM | > 10 µM | > 10 µM | > 10 µM | > 10 µM | > 10 µM | > 30 µM | – | > 30 µM | – | – | – | – | – |
